Test results as given in patent US20220402948A1, “EGFR INHIBITOR, COMPOSITION AND PREPARATION METHOD THEREFOR” (BETTA PHARMACEUTICALS CO., LTD., priority 2019, published 2022).
Read-outs that look alike come from different tables or passages of the source.

Experiments:
EGFRΔ19del/T790M/C797S = EGFRΔ19del/T790M/C797S (Homo sapiens, UniProt P00533, T790M/C797S, form not given); assay: EGFR Δ19del/T790M/C797S kinase test (mobility variation analysis, Caliper EZ Reader); format: biochemical; details: kinase enzymatic activity, Table 1
Outline: (§1)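 Read-out is substrate-to-product conversion by mobility shift, stopped after incubation at room temperature with ATP and substrate, following a 10-minute room-temperature compound–enzyme pre-incubation. IC50 obtained by four-parameter variable-slope fitting of inhibition normalized between enzyme-free and uninhibited controls.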

EGFR WT = EGFR WT (Homo sapiens, UniProt P00533); assay: EGFR WT kinase test (mobility variation analysis, Caliper EZ Reader); format: biochemical; details: kinase enzymatic activity, Table 1
Outline: as §1

[1] = molecular target: Ba/F3 cells with EGFR Δ19del/T790M/C797S mutation gene stably overexpressed (Homo sapiens, UniProt P00533, T790M/C797S, cells depend on it, form not given); assay: Ba/F3-Δ19del/T790M/C797S cell proliferation assay (CellTiter Glo, 72 hours); format: cell-based; details: Table 2, read-out: EGFR Δ19del/T790M/C797S IC50
Method: (§2) Cell line: Ba/F3 cells with EGFR Δ19del/T790M/C797S mutation gene stably overexpressed named Ba/F3-Δ119del/T90M/C797S, and A431 and Ba/F3-EGFR wild-type cell line.
(§3) a) Centrifuge the growth cells in logarithmic phase at 1000 rpm for 5 minutes, resuspend the cells in culture medium, and then count the cells;
(§4) b) Inoculate the cells into a 96-well cell culture plate with a density of 2000 cells/well;
(§5) b) Incubate cells in an incubator for another 72 hours.
(§6) a) Take out the 96-well cell culture plate and add 50 μl CTG reagent (CellTiter Glo kit, promega, Cat #G7573);
(§7) b) Shake the plate for 2 minutes and let cool at room temperature for 10 minutes;
(§8) c) Read luminous signal value with PerkinElmer reader,
(§9) Analysis of Experimental Data
(§10) The data were analyzed by GraphPad Prism 6.0 software to obtain the fitting curve of compound activity.
(§11) Y=Min+(Max−Min)/(1+10^((Log IC50−X)*slope));
(§12) X: Logarithm of compound concentration; Y: luminous signal.

IGF1R = IGF1R (Homo sapiens, UniProt P08069); assay: IGF1R kinase test (mobility variation analysis, Caliper EZ Reader); format: biochemical; details: kinase enzymatic activity, Table 1; read-out: EGFR IGF1R IC50
Chain of IGF1R (P08069 31-1367, species assumed): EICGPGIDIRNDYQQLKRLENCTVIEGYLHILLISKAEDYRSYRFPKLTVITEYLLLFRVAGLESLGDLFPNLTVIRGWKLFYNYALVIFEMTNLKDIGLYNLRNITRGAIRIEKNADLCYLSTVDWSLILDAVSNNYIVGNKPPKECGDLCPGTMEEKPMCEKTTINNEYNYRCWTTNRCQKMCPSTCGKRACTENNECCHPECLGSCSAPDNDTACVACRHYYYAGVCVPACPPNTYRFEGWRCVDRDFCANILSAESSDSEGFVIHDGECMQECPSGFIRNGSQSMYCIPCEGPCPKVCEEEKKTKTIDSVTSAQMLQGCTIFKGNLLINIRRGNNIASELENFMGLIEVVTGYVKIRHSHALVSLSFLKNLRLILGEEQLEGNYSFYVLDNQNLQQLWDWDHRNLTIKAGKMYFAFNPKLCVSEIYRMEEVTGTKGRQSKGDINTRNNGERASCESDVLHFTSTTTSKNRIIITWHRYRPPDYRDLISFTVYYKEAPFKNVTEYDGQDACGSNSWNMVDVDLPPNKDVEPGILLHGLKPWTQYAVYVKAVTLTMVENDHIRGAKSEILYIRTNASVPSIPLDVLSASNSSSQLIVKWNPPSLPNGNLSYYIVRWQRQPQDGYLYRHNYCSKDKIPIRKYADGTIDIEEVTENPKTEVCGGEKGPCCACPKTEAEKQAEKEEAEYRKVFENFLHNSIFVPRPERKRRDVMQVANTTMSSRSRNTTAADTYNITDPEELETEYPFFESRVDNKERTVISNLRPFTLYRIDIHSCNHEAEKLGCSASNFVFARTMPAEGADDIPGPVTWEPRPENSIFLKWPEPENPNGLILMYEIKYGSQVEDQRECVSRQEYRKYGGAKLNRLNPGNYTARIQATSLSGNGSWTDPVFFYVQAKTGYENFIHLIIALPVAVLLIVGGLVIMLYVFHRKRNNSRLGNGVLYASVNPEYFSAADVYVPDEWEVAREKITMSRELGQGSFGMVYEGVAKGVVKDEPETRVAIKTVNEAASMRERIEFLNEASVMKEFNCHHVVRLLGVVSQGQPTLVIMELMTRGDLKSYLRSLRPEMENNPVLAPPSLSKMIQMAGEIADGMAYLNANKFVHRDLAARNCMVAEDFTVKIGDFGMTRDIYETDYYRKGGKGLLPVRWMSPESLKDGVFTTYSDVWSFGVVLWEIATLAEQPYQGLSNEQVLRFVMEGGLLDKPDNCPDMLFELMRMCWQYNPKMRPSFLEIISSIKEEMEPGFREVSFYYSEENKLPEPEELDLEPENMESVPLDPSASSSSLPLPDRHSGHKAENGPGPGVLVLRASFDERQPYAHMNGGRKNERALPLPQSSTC
Outline: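 Mobility-shift readout of substrate conversion, normalised to positive (no compound) and negative (no kinase) controls, gives % inhibition and IC50 by four-parameter fit. Compounds, 3-fold dilutions over 10 concentrations starting at 3000 nM, preincubated 10 min with kinase before ATP/substrate start; room temperature.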

A431 = A431 cell proliferation assay (CellTiter Glo, 72 hours); format: cell-based; details: cell proliferation, A431, 72 hours, Table 2, read-out: A431 IC50
Method: as §2
RPMI 1640 and 10% FBS and 1% PS; DMEM and 10% FBS and 1% PS.
a) Dilute the test compound (20 mM stock solution) to 10 mM with 100% DMSO as the starting concentration, and then serially dilute 3 times with a “9+0” concentration in 96-well dilution plate (Cat #P-05525, Labcyte);
b) Dilute compound solution thereof to 1:100 (1:20 for comparative compound 1 and compounds 1-38) in medium to prepare 10-fold working solution;
as §3, §4
a) Compounds prepared at step 2 were added to cell plate with 15 μl per well, the final concentrations were 1000, 333, 111.1, 37, 12.3, 4.1, 1.4, 0.5, 0.2 and 0 nM, and the final concentration of DMSO was 0.1%. The blank control well was a culture medium (0.1% DMSO) (the blank control well of comparative compound 1 and compounds 1-38 was a culture medium (0.5% DMSO).
as §5, §6, §7, §8, §9, §10
Fitting compound IC50 from nonlinear regression equation:
as §11, §12

Compound	IC50 (EGFRΔ19del/T790M/C797S)	IC50 (EGFR WT)	GI50 [1]	IC50 (IGF1R)	IC50 (A431; Homo sapiens, A-431, 72 h)	IC50 (A431)
CCc1cc(Nc2ncc(Br)c(Nc3ccc(-c4cnc(C)c(C)n4)cc3P(C)(C)=O)n2)c(OC)cc1N1CCC(N2CCN(C)CC2)CC1 [Compound 81, (2-((5-Bromo-2-((5-ethyl-2-methoxy-4-(4-(4-methylpiperazin-1-yl)piperidin-1-yl)phenyl)amino)pyrimidin-4-yl)amino)-5-(5,6-dimethylpyrazin-2-yl)phenyl)dimethylphosphine oxide]	0.6 nM	12.6 nM	16.8 nM	142 nM	875 nM	
CCc1cc(Nc2ncc(Br)c(Nc3ccc(-c4cnsc4)cc3P(C)(C)=O)n2)c(OC)cc1N1CCC(N2CCN(C)CC2)CC1 [Compound 38, (2-((5-Bromo-2-((5-ethyl-2-methoxy-4-(4-(4-methylpiperazin-1-yl)piperidin-1-yl)phenyl)amino)pyrimidin-4-yl)amino)-5-(isothiazol-4-yl)phenyl)dimethylphosphine oxide]	0.3 nM	11.1 nM	11.2 nM	64 nM	711 nM	
CCc1cc(Nc2ncc(Cl)c(Nc3ccc(-c4cnc(OC)nc4)cc3P(C)(C)=O)n2)c(OC)cc1N1CCC(N2CCN(C)CC2)CC1 [Compound 25, (2-((5-Chloro-2-((5-ethyl-2-methoxy-4-(4-(4-methylpiperazin-1-yl)piperidin-1-yl)phenyl)amino)pyrimidin-4-yl)amino)-5-(2-methoxypyrimidin-5-yl)phenyl)dimethylphosphine oxide]	0.4 nM	37.6 nM	22.4 nM	169 nM	1700 nM	
CCc1cc(Nc2ncc(Br)c(Nc3ccc(-c4ccccc4C#N)cc3P(C)(C)=O)n2)c(OC)cc1N1CCC(N2CCN(C)CC2)CC1 [Compound 51, 4′-((5-Bromo-2-((5-ethyl-2-methoxy-4-(4-(4-methylpiperazin-1-yl)piperidin-1-yl)phenyl)amino)pyrimidin-4-yl)amino)-3′-(dimethylphosphoryl)-[1,1′-biphenyl]-2-carbonitrile]	1.3 nM	30.8 nM	23.5 nM	269 nM	578 nM	
CCc1cc(Nc2ncc(Br)c(Nc3ccc(-c4cnn(CCN5CCOCC5)c4)cc3P(C)(C)=O)n2)c(OC)cc1N1CCC(N2CCN(C)CC2)CC1 [Compound 47, (2-((5-Bromo-2-((5-ethyl-2-methoxy-4-(4-(4-methylpiperazin-1-yl)piperidin-1-yl)phenyl)amino)pyrimidin-4-yl)amino)-5-(1-(2-morpholinoethyl)-1hydro-pyrazol-4-yl)phenyl)dimethylphosphine oxide]	0.9 nM	15.5 nM	23.4 nM	60 nM	771 nM	
(2-((5-Bromo-2-((5-ethyl-2-methoxy-4-(4-(4-methylpiperazin-1-yl)piperidin-1-yl)phenyl)amino]amino]pyrimidin-4-yl)amino)-5-(4-methoxy-1H-pyrazol-1-yl)phenyl)dimethylphosphine oxide [Compound 50]	0.2 nM	32 nM	19.1 nM	268 nM		1510 nM
CCc1cc(Nc2ncc(Cl)c(Nc3ccc(-c4nnc(C)o4)cc3P(C)(C)=O)n2)c(OC)cc1N1CCC(N2CCN(C)CC2)CC1 [Compound 45, (2-((5-Chloro-2-((5-ethyl-2-methoxy-4-(4-(4-methylpiperazin-1-yl)piperidin-1-yl)phenyl)amino)pyrimidin-4-yl)amino)-5-(5-methyl-1,3,4-oxadiazol-2-yl)phenyl)dimethylphosphine oxide]	0.4 nM	31.5 nM	26.2 nM	124 nM	1080 nM	
CCc1cc(Nc2ncc(Br)c(Nc3ccc(-c4cn(C)nc4C#N)cc3P(C)(C)=O)n2)c(OC)cc1N1CCC(N2CCN(C)CC2)CC1 [Compound 64, 4-(4-((5-Bromo-2-((5-ethyl-2-methoxy-4-(4-(4-methylpiperazin-1-yl)piperidin-1-yl)phenyl)amino]pyrimidin-4-yl)amino)-3-(dimethylphosphoryl)phenyl)-1-methyl-1H-pyrazole-3-carbonitrile]	0.8 nM	43.1 nM	47.3 nM	330 nM	> 10000 nM	
CCc1cc(Nc2ncc(Br)c(Nc3ccc(-c4ccc(C)cn4)cc3P(C)(C)=O)n2)c(OC)cc1N1CCC(N2CCN(C)CC2)CC1 [Compound 83, (2-((5-Bromo-2-((5-ethyl-2-methoxy-4-(4-(4-methylpiperazin-1-yl)piperidin-1-yl)phenyl)amino)pyrimidin-4-yl)amino)-5-(5-methylpyridin-2-yl)phenyl)dimethylphosphine oxide]	0.3 nM	29.4 nM	20.1 nM	180 nM	1430 nM	
CCc1cc(Nc2ncc(Br)c(Nc3ccc(-c4nn(C)c5ncccc45)cc3P(C)(C)=O)n2)c(OC)cc1N1CCC(N2CCN(C)CC2)CC1 [Compound 9, (2-((5-Bromo-2-((5-ethyl-2-methoxy-4-(4-(4-methylpiperazin-1-yl)piperidin-1-yl)phenyl)amino)pyrimidin-4-yl)amino)-5-(1-methyl-1H-pyrazol[3,4-b]pyridin-3-yl)phenyl)dimethylphosphine oxide]	0.4 nM	63.4 nM	23.1 nM	826 nM	1450 nM	
CCc1cc(Nc2ncc(Br)c(Nc3ccc(-n4cc(C)cn4)cc3P(C)(C)=O)n2)c(OC)cc1N1CCC(N2CCN(C)CC2)CC1 [Compound 86, (2-((5-Bromo-2-((5-ethyl-2-methoxy-4-(4-(4-methylpiperazin-1-yl)piperidin-1-yl)phenyl)amino)pyrimidin-4-yl)amino)-5-(4-methyl-1H-pyrazol-1-yl)phenyl)dimethylphosphine oxide]	0.7 nM	26.7 nM	37.4 nM	219 nM	1610 nM	
CCc1cc(Nc2ncc(Br)c(Nc3ccc(-c4cccc(C#N)c4)cc3P(C)(C)=O)n2)c(OC)cc1N1CCC(N2CCN(C)CC2)CC1 [Compound 5, 4′-((5-Bromo-2-((5-ethyl-2-methoxy-4-(4-(4-methylpiperazin-1-yl)piperidin-1-yl)phenyl)amino)pyrimidin-4-yl)amino)-3′-(dimethylphosphineoxide)-[1,1′-diphenyl]-3-carbonitrile]	0.4 nM	12.5 nM	18.7 nM	117 nM	> 10000 nM	
CCc1cc(Nc2ncc(Br)c(Nc3ccc(-c4cncnc4)cc3P(C)(C)=O)n2)c(OC)cc1N1CCC(N2CCN(C)CC2)CC1 [Compound 22, (2-((5-Bromo-2-((5-ethyl-2-methoxy-4-(4-(4-methylpiperazin-1-yl)piperidin-1-yl)phenyl)amino)pyrimidin-4-yl)amino)-5-(pyrimidin-5-yl)phenyl)dimethylphosphine oxide]	0.3 nM	40.8 nM	20.5 nM	120 nM	831 nM	
CCc1cc(Nc2ncc(Cl)c(Nc3ccc(-c4ncc(F)cn4)cc3P(C)(C)=O)n2)c(OC)cc1N1CCC(N2CCN(C)CC2)CC1 [Compound 18, (2-((5-Chloro-2-((5-ethyl-2-methoxy-4-(4-(4-methylpiperazin-1-yl)piperidin-1-yl)phenyl)amino)pyrimidin-4-yl)amino)-5-(5-fluoropyrimidin-2-yl)phenyl)dimethylphosphine oxide]	0.7 nM	20.3 nM	13.2 nM	126 nM	1270 nM	
CCc1cc(Nc2ncc(Br)c(Nc3ccc(-c4cnc(C5CC5)cn4)cc3P(C)(C)=O)n2)c(OC)cc1N1CCC(N2CCN(C)CC2)CC1 [Compound 79, (2-((5-Bromo-2-((5-ethyl-2-methoxy-4-(4-(4-methylpiperazin-1-yl)piperidin-1-yl)phenyl)amino)pyrimidin-4-yl)amino)-5-(5-cyclopropylpyrazin-2-yl)phenyl)dimethylphosphine oxide]	0.4 nM	18.1 nM	10.7 nM	191 nM	5650 nM	
